Assay results taken from patent publication US9409870B2, “Compounds” (CHIESI FARMACEUTICI S.p.A., priority 2014, dated 2016).

biological target: T1, human neutrophil elastase (HNE) (Homo sapiens, UniProt P08246); test: HNE enzyme activity assay (fluorogenic peptide substrate MeOSuc-Ala-Ala-Pro-Val-AMC); assay type: biochemical; conditions: human leukocyte elastase 0.00072 U/mL, substrate 100 μM, 25° C., 30 minutes, pH 7.5; at least two separate experiments; read-out: FINE inhibition (HNE enzyme inhibition, IC50 values)
T1 construct: purchased Sigma E8140
T1 sequence (P08246 30-247 limits assumed): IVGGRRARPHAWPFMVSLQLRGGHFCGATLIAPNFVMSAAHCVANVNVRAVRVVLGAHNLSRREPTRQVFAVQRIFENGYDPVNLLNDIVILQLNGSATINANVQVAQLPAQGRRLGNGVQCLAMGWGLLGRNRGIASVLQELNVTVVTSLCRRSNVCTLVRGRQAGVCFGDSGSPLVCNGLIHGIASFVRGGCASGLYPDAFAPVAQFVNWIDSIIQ
Experimental: Compounds of this invention were tested for potency in a human neutrophil elastase (HNE) enzyme activity assay.
Assays were performed in 96-well plates in a total assay volume of 100 μL. The final concentration of elastase enzyme (human leukocyte elastase, Sigma E8140) was 0.00072 U/mL. The peptide substrate (MeOSuc-Ala-Ala-Pro-Val-AMC, Calbiochem #324740) was used at a final concentration of 100 μM. The final concentration of DMSO was 1% in the assay buffer (0.05M Tris.HCl, 0.1M NaCl, 0.1M CaCl2, 0.0005% brij-35, pH 7.5). The enzymatic reaction was started by addition of the enzyme and incubated at 25° C. for 30 minutes. After incubation, the reaction was stopped by addition of soybean trypsin inhibitor (Sigma T9003) at a final concentration of 50 μg/well. Fluorescence was measured using a Molecular Devices fluorescence plate reader using 380 nm excitation and 460 nm emission wavelengths.
A dose response to each compound was performed and the effect of compound in each experiment was expressed as a percentage inhibition of the control enzyme fluorescence. Dose response curves were plotted and compound potency (IC50) was determined. Compounds were tested in at least two separate experiments.

Question: Which IC50 does the source give for Cc1c(-c2ccnn2-c2ccc(C#N)cc2)n(C(=O)N[C@@H]2COC[C@H]2O)c(=O)n1-c1cccc(C(F)(F)F)c1 (racemic) [Example 48, Mixture of 5-[2-(4-Cyano-phenyl)-2H-pyrazol-3-yl]-4-methyl-2-oxo-3-(3-trifluoromethyl-phenyl)-2,3-dihydro-imidazole-1-carboxylic acid ((3R,4S)-4-hydroxy-tetrahydro-furan-3-yl)-amide and 5-[2-(4-Cyano-phenyl)-2H-pyrazol-3-yl]-4-methyl-2-oxo-3-(3-trifluoromethyl-phenyl)-2,3-dihydro-imidazole-1-carboxylic acid ((3S,4R)-4-hydroxy-tetrahydro-furan-3-yl)-amide] here?
Answer: Its IC50 is less than 1 nM.

Question: Which IC50 does the source give for Cc1c(-c2ccnn2-c2ccc(C#N)cc2)[nH]c(=O)n1-c1cccc(C(F)(F)F)c1 [Example 1, 4-(5-{5-Methyl-2-oxo-1-[3-(trifluoromethyl)phenyl]-2,3-dihydro-1H-imidazol-4-yl}-1H-pyrazol-1-yl)benzonitrile] here?
Answer: The IC50 was 10 to 50 nM.

Question: With Cc1c(-c2ccnn2-c2ccc(C#N)cc2)n(CCCS(C)(=O)=O)c(=O)n1-c1cccc(C(F)(F)F)c1 [Example 2, 4-(5-{5-Methyl-3-[3-(methylsulfonyl)propyl]-2-oxo-1-[3-(trifluoromethyl)phenyl]-2,3-dihydro-1H-imidazol-4-yl}-1H-pyrazol-1-yl)benzonitrile] as the compound, how does the IC50 read?
Answer: Its IC50 is 1 to 10 nM.

Question: How did the IC50 turn out when Cc1c(-c2ccnn2-c2ccc(C#N)cc2)n(C)c(=O)n1-c1cccc(C(F)(F)F)c1 [Example 3, 4-(5-{3,5-Dimethyl-2-oxo-1-[3-(trifluoromethyl)phenyl]-2,3-dihydro-1H-imidazol-4-yl}-1H-pyrazol-1-yl)benzonitrile] was run?
Answer: The IC50 was 1 to 10 nM.

Question: CCOC(=O)n1c(-c2ccnn2-c2ccc(C#N)cc2)c(C)n(-c2cccc(C(F)(F)F)c2)c1=O [Example 4, Ethyl-5-[1-(4-cyanophenyl)-1H-pyrazol-5-yl]-4-methyl-2-oxo-3-[3-(trifluoromethyl)phenyl]-2,3-dihydro-1H-imidazole-1-carboxylate] was tested. Which IC50 did it give?
Answer: Its IC50 is less than 1 nM.

Question: CC(=O)n1c(-c2ccnn2-c2ccc(C#N)cc2)c(C)n(-c2cccc(C(F)(F)F)c2)c1=O [Example 5, 4-(5-{3-Acetyl-5-methyl-2-oxo-1-[3-(trifluoromethyl)phenyl]-2,3-dihydro-1H-imidazol-4-yl}-1H-pyrazol-1-yl)benzonitrile] was tested. Which IC50 did it give?
Answer: The IC50 was 1 to 10 nM.

Question: Which IC50 does the source give for CCNC(=O)n1c(-c2ccnn2-c2ccc(C#N)cc2)c(C)n(-c2cccc(C(F)(F)F)c2)c1=O [Example 6, 5-[1-(4-Cyanophenyl)-1H-pyrazol-5-yl]-N-ethyl-4-methyl-2-oxo-3-[3-(trifluoromethyl)phenyl]-2,3-dihydro-1H-imidazole-1-carboxamide] here?
Answer: Its IC50 is less than 1 nM.

Question: Which IC50 does the source give for Cc1c(-c2ccnn2-c2ccc(C#N)cc2)n(C(=O)NCCO)c(=O)n1-c1cccc(C(F)(F)F)c1 [Example 7, 5-[1-(4-Cyanophenyl)-1H-pyrazol-5-yl]-N-(2-hydroxyethyl)-4-methyl-2-oxo-3-[3-(trifluoromethyl)phenyl]-2,3-dihydro-1H-imidazole-1-carboxamide] here?
Answer: Its IC50 is 1 to 10 nM.

Question: How did the IC50 turn out when Cc1c(-c2ccnn2-c2ccc(C#N)cc2)n(C(=O)NCCCO)c(=O)n1-c1cccc(C(F)(F)F)c1 [Example 8, 5-[1-(4-Cyanophenyl)-1H-pyrazol-5-yl]-N-(3-hydroxypropyl)-4-methyl-2-oxo-3-[3-(trifluoromethyl)phenyl]-2,3-dihydro-1H-imidazole-1-carboxamide] was run?
Answer: The IC50 was less than 1 nM.

Question: Which IC50 does the source give for Cc1c(-c2ccnn2-c2ccc(C#N)cc2)n(C(=O)NCCCN(C)C)c(=O)n1-c1cccc(C(F)(F)F)c1 [Example 9, 5-[1-(4-Cyanophenyl)-1H-pyrazol-5-yl]-N-[3-(dimethylamino)propyl]-4-methyl-2-oxo-3-[3-(trifluoromethyl)phenyl]-2,3-dihydro-1H-imidazole-1-carboxamide] here?
Answer: Its IC50 is 1 to 10 nM.

Question: CCCC(=O)n1c(-c2ccnn2-c2ccc(C#N)cc2)c(C)n(-c2cccc(C(F)(F)F)c2)c1=O [Example 10, 4-(5-{3-Butanoyl-5-methyl-2-oxo-1-[3-(trifluoromethyl)phenyl]-2,3-dihydro-1H-imidazol-4-yl}-1H-pyrazol-1-yl)benzonitrile] was tested. Which IC50 did it give?
Answer: Its IC50 is less than 1 nM.

Question: COCCNC(=O)n1c(-c2ccnn2-c2ccc(C#N)cc2)c(C)n(-c2cccc(C(F)(F)F)c2)c1=O [Example 11, 5-[1-(4-Cyanophenyl)-1H-pyrazol-5-yl]-N-(2-methoxyethyl)-4-methyl-2-oxo-3-[3-(trifluoromethyl)phenyl]-2,3-dihydro-1H-imidazole-1-carboxamide] was tested. Which IC50 did it give?
Answer: Its IC50 is less than 1 nM.

Question: Which IC50 does the source give for Cc1c(-c2ccnn2-c2ccc(C#N)cc2)n(C(=O)NCCN(C)C)c(=O)n1-c1cccc(C(F)(F)F)c1 [Example 12, 5-[1-(4-Cyanophenyl)-1H-pyrazol-5-yl]-N-[2-(dimethylamino)ethyl]-4-methyl-2-oxo-3-[3-(trifluoromethyl)phenyl]-2,3-dihydro-1H-imidazole-1-carboxamide] here?
Answer: Its IC50 is 1 to 10 nM.

Question: With Cc1c(-c2ccnn2-c2ccc(C#N)cc2)n(C(=O)NCCS(C)(=O)=O)c(=O)n1-c1cccc(C(F)(F)F)c1 [Example 13, 5-[1-(4-Cyanophenyl)-1H-pyrazol-5-yl]-4-methyl-N-[2-(methylsulfonyl)ethyl]-2-oxo-3-[3-(trifluoromethyl)phenyl]-2,3-dihydro-1H-imidazole-1-carboxamide] as the compound, how does the IC50 read?
Answer: Its IC50 is less than 1 nM.

Question: How did the IC50 turn out when Cc1c(-c2ccnn2-c2ccc(C#N)cc2)n(C(=O)NC2CCOC2)c(=O)n1-c1cccc(C(F)(F)F)c1 (centres unmarked) [Example 14, 5-[1-(4-Cyanophenyl)-1H-pyrazol-5-yl]-4-methyl-2-oxo-N-(tetrahydrofuran-3-yl)-3-[3-(trifluoromethyl)phenyl]-2,3-dihydro-1H-imidazole-1-carboxamide] was run?
Answer: Its IC50 is less than 1 nM.

Question: For Cc1c(-c2ccnn2-c2ccc(C#N)cc2)n(C(=O)N[C@H]2CCOC2)c(=O)n1-c1cccc(C(F)(F)F)c1 [Example 15, 5-[1-(4-Cyanophenyl)-1H-pyrazol-5-yl]-4-methyl-2-oxo-N-[(3S)-tetrahydrfuran-3-yl]-3-[3-(trifluoromethyl)phenyl]-2,3-dihydro-1H-imidazole-1-carboxamide], which IC50 is on record?
Answer: Its IC50 is less than 1 nM.

Question: How did the IC50 turn out when Cc1c(-c2ccnn2-c2ccc(C#N)cc2)n(C(=O)N[C@@H]2CCOC2)c(=O)n1-c1cccc(C(F)(F)F)c1 [Example 16, 5-[1-(4-Cyanophenyl)-1H-pyrazol-5-yl]-4-methyl-2-oxo-N-[(3R)-tetrahydrofuran-3-yl]-3-[3-(trifluoromethyl)phenyl]-2,3-dihydro-1H-imidazole-1-carboxamide] was run?
Answer: Its IC50 is less than 1 nM.

Question: How did the IC50 turn out when Cc1c(-c2ccnn2-c2ccc(C#N)cc2)n(C(=O)NCc2ccn(C)n2)c(=O)n1-c1cccc(C(F)(F)F)c1 [Example 17, 5-[1-(4-Cyanophenyl)-1H-pyrazol-5-yl]-4-methyl-N-[(1-methyl-1H-pyrazol-3-yl)methyl]-2-oxo-3-[3-(trifluoromethyl)phenyl]-2,3-dihydro-1H-imidazole-1-carboxamide] was run?
Answer: The IC50 was less than 1 nM.

Question: With COC(=O)n1c(-c2ccnn2-c2ccc(C#N)cc2)c(C)n(-c2cccc(C(F)(F)F)c2)c1=O [Example 18, Methyl-5-[1-(4-cyanophenyl)-1H-pyrazol-5-yl]-4-methyl-2-oxo-3-[3-(trifluoromethyl)phenyl]-2,3-dihydro-1H-imidazole-1-carboxylate] as the compound, how does the IC50 read?
Answer: The IC50 was less than 1 nM.

Question: CCCCC(=O)n1c(-c2ccnn2-c2ccc(C#N)cc2)c(C)n(-c2cccc(C(F)(F)F)c2)c1=O [Example 19, 4-(5-{5-Methyl-2-oxo-3-pentanoyl-1-[3-(trifluoromethyl)phenyl]-2,3-dihydro-1H-imidazol-4-yl}-1H-pyrazol-1-yl)benzonitrile] was tested. Which IC50 did it give?
Answer: Its IC50 is less than 1 nM.
